Source: the supplement of paper PMC10307832

Experiments:
Assay in all cases: relative viability (nuclei count vs DMSO), 5 days (fraction); higher = more cells survive
[1] = compound: Cn1c(Nc2ccc(C(F)(F)F)cc2)nc2cc(Oc3ccnc(-c4ncc(C(F)(F)F)[nH]4)c3)ccc21 [RAF265] + O=C(c1cc(Cc2n[nH]c(=O)c3ccccc23)ccc1F)N1CCN(C(=O)C2CC2)CC1 [Olaparib] (partner 8 µM)
Summary of the method: (§1)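 Medians of duplicate plates are given as relative viability. That measure is the nuclei count in treated wells divided by the count in vehicle wells. Counts were taken on 4× images of lung cancer cell lines in 1536-well plates, 5 days after pin-tool dosing the day after seeding with one drug alone or a fixed anchor-drug dose plus five library-drug doses (not always all listed) in √10 steps.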

[2] = compound: Cn1c(Nc2ccc(C(F)(F)F)cc2)nc2cc(Oc3ccnc(-c4ncc(C(F)(F)F)[nH]4)c3)ccc21 [RAF265] + N=C(N)NC(=N)NCCc1ccccc1 [Phenformin] (partner 250 µM)
Summary of the method: as §1

[3] = compound: Cn1c(Nc2ccc(C(F)(F)F)cc2)nc2cc(Oc3ccnc(-c4ncc(C(F)(F)F)[nH]4)c3)ccc21 [RAF265] + CC1(C)CCC(c2ccc(Cl)cc2)=C(CN2CCN(c3ccc(C(=O)NS(=O)(=O)c4ccc(N[C@H](CCN5CCOCC5)CSc5ccccc5)c(S(=O)(=O)C(F)(F)F)c4)cc3)CC2)C1 [Navitoclax] (partner 0.5 µM)
Summary of the method: as §1

[4] = compound: C1=CC=C2C(=C1)C=CC(=C2SSC3=C(C=CC4=CC=CC=C43)O)O [IPA-3] + CC(=O)Nc1cccc(-n2c(=O)n(C3CC3)c(=O)c3c(Nc4ccc(I)cc4F)n(C)c(=O)c(C)c32)c1 [Trametinib] (partner 0.02 µM)
Summary of the method: as §1

Row | Cell Line | relative viability ([1]; first compound 0.01 µM) | relative viability ([1]; first compound 0.03162 µM) | relative viability ([1]; first compound 0.1 µM) | relative viability ([1]; first compound 0.3162 µM) | relative viability ([1]; first compound 1 µM) | relative viability ([2]; first compound 0.01 µM) | relative viability ([2]; first compound 0.03162 µM) | relative viability ([2]; first compound 0.1 µM) | relative viability ([2]; first compound 0.3162 µM) | relative viability ([2]; first compound 1 µM) | relative viability ([3]; first compound 0.01 µM) | relative viability ([3]; first compound 0.03162 µM) | relative viability ([3]; first compound 0.1 µM) | relative viability ([3]; first compound 0.3162 µM) | relative viability ([3]; first compound 1 µM) | relative viability ([4]; first compound 0.2 µM) | relative viability ([4]; first compound 0.6325 µM) | relative viability ([4]; first compound 2 µM) | relative viability ([4]; first compound 6.325 µM) | relative viability ([4]; first compound 20 µM)
1 | LU99A | 0.268 | 0.283 | 0.226 | 0.185 | 0.152 | 0.817 | 0.821 | 0.679 | 0.571 | 0.375 | 0.703 | 0.688 | 0.613 | 0.514 | 0.325 | 0.608 | 0.551 | 0.502 | 0.553 | 0.514
2 | LXF-289 | 1.08 | 1.06 | 0.998 | 0.748 | 0.551 | 0.52 | 0.526 | 0.476 | 0.372 | 0.338 | 0.919 | 0.905 | 0.935 | 0.818 | 0.807 | 0.714 | 0.646 | 0.668 | 0.662 | 0.762
3 | NCI-H23 | 0.363 | 0.24 | 0.294 | 0.271 | 0.186 | 0.754 | 0.749 | 0.669 | 0.544 | 0.59 | 0.886 | 0.825 | 0.775 | 0.553 | 0.317 | 0.379 | 0.379 | 0.342 | 0.383 | 0.443
4 | NCI-H322M | 0.878 | 0.689 | 0.632 | 0.53 | 0.344 | 0.759 | 0.815 | 0.44 | 0.366 | 0.269 | 1.18 | 1.14 | 1.15 | 0.381 | 0.274 | 0.459 | 0.481 | 0.567 | 0.453 | 0.581
5 | NCI-H441 | 0.555 | 0.512 | 0.539 | 0.445 | 0.394 | 0.914 | 0.833 | 0.725 | 0.628 | 0.633 | 0.582 |  | 0.515 | 0.5 | 0.776 | 0.535 | 0.437 | 0.348 | 0.473 | 0.449
6 | NCI-H460 | 0.444 | 0.426 | 0.491 | 0.411 | 0.28 | 0.529 | 0.463 | 0.483 | 0.399 | 0.394 | 1.17 | 1.08 | 1.21 |  | 0.852 | 0.133 | 0.145 | 0.141 | 0.129 | 0.104
7 | NCI-H520 | 0.366 | 0.316 | 0.322 | 0.301 | 0.255 | 0.553 | 0.544 | 0.579 | 0.555 | 0.397 | 1.04 | 0.888 | 1.07 | 0.848 | 0.706 | 1.01 | 0.654 |  | 0.685 | 0.528
8 | NCI-H596 | 0.825 | 0.765 | 0.711 | 0.727 | 0.535 | 0.869 | 0.833 | 0.691 | 0.689 | 0.489 | 1.02 | 0.862 | 1.03 | 1.06 | 0.576 | 0.842 | 0.756 | 0.861 | 0.801 | 0.818
9 | NCI-H647 | 0.422 | 0.494 | 0.357 | 0.399 | 0.306 | 0.432 | 0.515 | 0.38 | 0.282 | 0.212 | 1.2 | 0.954 | 0.977 | 0.895 | 0.458 | 0.69 | 0.445 | 0.558 | 0.284 | 0.0977
10 | NCI-H727 | 0.701 | 0.685 | 0.708 | 0.593 | 0.547 | 0.531 | 0.502 | 0.452 | 0.341 | 0.398 | 0.531 | 0.539 | 0.512 | 0.363 | 0.229 | 0.373 | 0.409 | 0.402 | 0.344 | 0.417
11 | NCI-H838 | 0.829 | 0.725 | 0.752 | 0.694 | 0.594 | 0.733 | 0.606 | 0.521 | 0.499 | 0.517 | 1.23 | 1.14 | 1.15 | 1.1 | 1.01 | 0.8 | 0.519 | 0.352 | 0.478 | 0.517
12 | NCI-H1355 | 0.814 | 0.732 | 0.694 | 0.608 | 0.31 | 0.432 | 0.434 | 0.41 | 0.309 | 0.332 | 1.01 | 0.831 | 0.919 | 0.532 | 0.264 | 0.462 | 0.476 | 0.428 | 0.423 | 0.443
13 | NCI-H1395 | 0.478 | 0.431 | 0.434 | 0.49 | 0.46 | 0.438 | 0.444 | 0.423 | 0.409 | 0.387 | 1.46 | 1.16 | 1.15 | 1.28 | 0.867 | 1.02 | 1.03 | 1.04 | 1.05 | 1.13
14 | NCI-H1437 | 0.644 | 0.611 | 0.653 | 0.619 | 0.561 | 0.352 | 0.388 | 0.287 | 0.329 | 0.242 | 1.1 | 1.06 | 1.01 | 1.18 | 1.1 | 0.712 | 0.611 | 0.483 | 0.468 | 0.546
15 | NCI-H1650 | 0.9 | 0.797 | 0.824 | 0.837 | 0.826 | 0.55 | 0.438 | 0.49 | 0.333 | 0.361 | 1.17 | 1.18 | 1.53 | 1.19 | 1.22 | 0.996 | 0.558 | 0.579 | 0.647 | 0.545
16 | NCI-H1651 | 0.187 | 0.17 | 0.194 | 0.185 | 0.167 | 0.369 | 0.334 | 0.316 | 0.294 | 0.295 | 0.992 | 0.884 | 1.06 | 0.874 | 0.871 | 0.945 | 0.798 | 0.883 | 0.904 | 0.971
17 | NCI-H1666 | 0.806 | 0.746 | 0.707 | 0.786 | 0.703 | 0.597 | 0.343 | 0.567 | 0.579 | 0.559 | 1.01 | 1 | 0.882 | 0.931 | 0.454 | 0.902 | 0.855 | 0.886 | 0.924 | 0.884
18 | NCI-H1734 | 0.627 | 0.574 | 0.575 | 0.511 | 0.344 | 0.458 | 0.376 | 0.32 | 0.317 | 0.257 | 0.886 | 0.656 | 0.825 | 0.628 | 0.348 | 0.661 | 0.628 | 0.707 | 0.618 | 0.72
19 | NCI-H1755 | 0.879 | 0.788 | 0.909 | 0.717 | 0.499 | 0.612 | 0.59 | 0.571 | 0.459 | 0.432 | 0.999 | 0.879 | 0.764 | 0.671 | 0.356 | 0.764 | 0.797 | 0.739 | 0.739 | 0.753
20 | NCI-H1792 | 0.474 | 0.291 | 0.279 | 0.262 | 0.0641 | 0.394 | 0.182 | 0.186 | 0.0818 | 0.0945 | 0.637 | 0.597 | 0.641 | 0.541 | 0.459 | 0.526 | 0.504 |  | 0.407 | 0.495
21 | NCI-H1793 | 0.898 | 0.755 | 0.724 | 0.382 | 0.268 | 0.352 | 0.351 | 0.298 |  | 0.262 | 0.351 | 0.379 | 0.316 | 0.336 | 0.21 | 0.456 | 0.373 | 0.448 | 0.376 | 0.437
22 | NCI-H1915 | 0.256 | 0.248 | 0.235 | 0.224 | 0.136 | 0.364 | 0.341 | 0.265 | 0.203 | 0.183 | 0.76 | 0.72 | 0.712 | 0.407 | 0.281 | 0.301 | 0.271 | 0.286 | 0.295 | 0.318
23 | NCI-H1944 | 0.43 | 0.44 | 0.385 | 0.361 | 0.26 | 0.192 | 0.202 | 0.184 | 0.168 | 0.143 | 1.11 | 1.06 | 1.15 | 0.798 | 0.86 | 0.436 | 0.433 | 0.401 | 0.42 | 0.415
24 | NCI-H1975 | 0.707 | 0.552 | 0.522 | 0.308 | 0.305 | 0.386 | 0.343 | 0.284 | 0.251 | 0.205 | 1.17 | 0.812 | 0.912 | 0.528 | 0.324 | 0.328 | 0.325 | 0.331 | 0.424 | 0.323
25 | NCI-H1993 | 1.21 | 1.41 | 1.19 | 1.07 | 0.886 | 0.455 | 0.586 | 0.502 | 0.603 | 0.479 | 1.1 | 0.947 | 1.08 | 0.719 | 0.783 | 0.491 | 0.475 | 0.468 | 0.558 | 0.506
26 | NCI-H2009 | 0.785 | 0.594 | 0.603 | 0.671 | 0.579 | 0.479 | 0.416 | 0.407 | 0.468 | 0.38 | 1.19 | 1.15 | 1.16 | 1.13 | 0.858 | 0.307 | 0.266 | 0.245 | 0.279 | 0.241
27 | NCI-H2023 | 0.491 | 0.452 | 0.544 | 0.524 | 0.374 | 0.421 | 0.407 | 0.391 | 0.353 | 0.322 | 1.09 | 1.02 | 1.06 | 1.09 | 0.908 | 0.735 | 0.453 | 0.659 | 0.612 | 0.584
